These are literature values, as cited in patent publication US20200316043A1, “PHARMACEUTICAL COMPOSITION COMPRISING CLEVIDIPINE AND PROCESS FOR PREPARATION THEREOF” (Aurobindo Pharma Ltd., priority 2017, published 2020).

Molecules are shown by their SMILES.

The target in series [1] is ileal and aortic smooth muscle and cardiac muscle (Homo sapiens, UniProt Q13936). Conditions: EDTA treatment of ileal and aortic smooth muscle and cardiac muscle.
Chain of ileal and aortic smooth muscle and cardiac muscle (Q13936 whole entry): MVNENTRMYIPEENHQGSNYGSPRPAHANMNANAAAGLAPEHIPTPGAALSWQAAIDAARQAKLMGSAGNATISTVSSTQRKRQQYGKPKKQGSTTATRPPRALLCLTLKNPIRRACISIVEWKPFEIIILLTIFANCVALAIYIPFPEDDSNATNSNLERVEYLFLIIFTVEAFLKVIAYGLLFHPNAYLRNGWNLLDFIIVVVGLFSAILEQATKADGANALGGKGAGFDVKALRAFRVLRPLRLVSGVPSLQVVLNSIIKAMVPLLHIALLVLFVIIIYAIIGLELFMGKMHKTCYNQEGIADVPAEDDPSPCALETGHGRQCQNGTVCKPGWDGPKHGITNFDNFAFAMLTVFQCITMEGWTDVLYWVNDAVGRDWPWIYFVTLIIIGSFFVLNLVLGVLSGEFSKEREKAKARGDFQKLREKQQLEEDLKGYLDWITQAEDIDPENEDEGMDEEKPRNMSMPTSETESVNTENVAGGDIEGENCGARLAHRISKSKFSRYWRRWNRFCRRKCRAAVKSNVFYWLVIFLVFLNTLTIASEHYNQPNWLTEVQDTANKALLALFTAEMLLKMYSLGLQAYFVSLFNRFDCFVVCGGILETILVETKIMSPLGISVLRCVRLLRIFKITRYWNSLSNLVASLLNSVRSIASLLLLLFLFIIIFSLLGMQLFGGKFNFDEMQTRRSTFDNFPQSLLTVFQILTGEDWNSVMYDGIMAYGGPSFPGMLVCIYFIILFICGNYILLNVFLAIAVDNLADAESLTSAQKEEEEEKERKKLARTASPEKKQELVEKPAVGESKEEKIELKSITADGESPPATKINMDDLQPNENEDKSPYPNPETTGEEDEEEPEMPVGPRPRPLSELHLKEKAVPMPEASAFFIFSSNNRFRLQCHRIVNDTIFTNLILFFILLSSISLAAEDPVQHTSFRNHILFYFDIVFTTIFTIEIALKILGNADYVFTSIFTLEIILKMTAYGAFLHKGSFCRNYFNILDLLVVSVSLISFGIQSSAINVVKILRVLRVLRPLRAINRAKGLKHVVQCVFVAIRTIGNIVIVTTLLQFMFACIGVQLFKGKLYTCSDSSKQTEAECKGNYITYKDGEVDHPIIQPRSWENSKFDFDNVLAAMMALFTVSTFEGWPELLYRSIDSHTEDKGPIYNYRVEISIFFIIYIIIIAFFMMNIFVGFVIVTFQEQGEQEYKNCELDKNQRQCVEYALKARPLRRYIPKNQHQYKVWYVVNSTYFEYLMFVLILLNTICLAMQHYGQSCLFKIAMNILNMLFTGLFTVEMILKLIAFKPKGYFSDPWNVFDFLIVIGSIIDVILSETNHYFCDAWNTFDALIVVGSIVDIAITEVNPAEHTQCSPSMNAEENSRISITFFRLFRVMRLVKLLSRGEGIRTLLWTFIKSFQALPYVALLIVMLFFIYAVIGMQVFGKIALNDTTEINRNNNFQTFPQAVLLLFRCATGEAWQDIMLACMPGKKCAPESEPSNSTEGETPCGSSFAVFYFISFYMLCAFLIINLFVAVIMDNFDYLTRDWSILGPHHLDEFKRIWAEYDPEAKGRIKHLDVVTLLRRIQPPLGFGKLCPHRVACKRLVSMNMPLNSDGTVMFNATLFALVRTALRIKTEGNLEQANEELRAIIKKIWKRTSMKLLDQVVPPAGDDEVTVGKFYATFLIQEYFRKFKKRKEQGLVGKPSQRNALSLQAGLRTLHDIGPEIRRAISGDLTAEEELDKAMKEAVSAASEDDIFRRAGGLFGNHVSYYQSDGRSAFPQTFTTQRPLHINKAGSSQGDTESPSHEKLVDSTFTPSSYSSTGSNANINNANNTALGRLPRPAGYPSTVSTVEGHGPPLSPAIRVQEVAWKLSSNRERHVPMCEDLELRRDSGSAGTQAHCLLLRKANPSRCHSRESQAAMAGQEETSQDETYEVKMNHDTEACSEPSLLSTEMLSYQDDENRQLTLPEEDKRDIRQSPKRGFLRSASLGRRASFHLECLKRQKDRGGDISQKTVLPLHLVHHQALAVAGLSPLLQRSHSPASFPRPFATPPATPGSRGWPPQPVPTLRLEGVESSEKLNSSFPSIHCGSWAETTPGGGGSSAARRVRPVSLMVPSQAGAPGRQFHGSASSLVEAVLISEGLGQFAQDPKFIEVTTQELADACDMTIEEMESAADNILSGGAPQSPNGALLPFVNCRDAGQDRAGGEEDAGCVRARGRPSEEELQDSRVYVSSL

Consider `CCCC(=O)OCOC(=O)C1=C(C)NC(C)=C(C(=O)OC)C1c1cccc(Cl)c1Cl` (stereo not drawn) [Clevidipine, butyroxymethyl methyl 4-(2′,3′dichlorophenyl)-1,4-dihydro-2,6-dimethyl-3,5-pyridinedicarboxylate], for which the solubility in lipids entry was “moderate to high” and the solubility in water result was “low”.
`O=C(O)CN(CCN(CC(=O)O)CC(=O)O)CC(=O)O` [EDTA, Ethylene Diaminetetraacetic acid]: the “reduction of specific [3H] nitrendipine binding” value in series [1] is 70-95%.
